The results in this text go back to patent US9168278B2, “Use for cannabinoid” (GW Pharma Limited, priority 2004, dated 2015).

Where two headings read alike, the source gives them in different places.

In assay [1] the target is T1, CB1 receptors (mouse brain membranes) (Mus musculus, UniProt P47746).
T1 construct: membranes prepared from healthy brain tissue, which is densely populated with CB1 but not CB2 receptors; from tissue; host or cells: mouse brain membranes
Briefly: Radioligand displacement assay, mouse brain membranes. Format: binding. The method, then: Experiments were performed with membranes prepared from healthy brain tissue, which is densely populated with CB1 but not CB2 receptors (reviewed in Howlett et al. 2002).
Binding was initiated by the addition of either the brain membranes (33 μg protein per tube) or the transfected hCB2 cells (25 μg protein per tube).
All assays were performed at 37° C. for 60 min before termination by addition of ice-cold wash buffer (50 mM Tris buffer, 1 mg ml^−1 bovine serum albumin, pH 7.4) and vacuum filtration using a 24-well sampling manifold and GF/B filters that had been soaked in wash buffer at 4° C. for at least 24 h.
Each reaction tube was washed six times with a 1.2 ml aliquot of wash buffer. The filters were oven-dried for 60 min and then placed in 5 ml of scintillation fluid. Radioactivity was quantified by liquid scintillation spectrometry.
Specific binding was defined as the difference between the binding that occurred in the presence and absence of 1 μM unlabelled CP55940. THCV was stored as a stock solution of 10 mM in DMSO, the vehicle concentration in all assay tubes being 0.1% DMSO.
Values are expressed as means and variability as s.e.mean or as 95% confidence limits. […] Its dissociation constant (Ki value) was calculated using the equation of Cheng & Prusoff (1973).
(Displacement assays read how much labelled ligand stays bound in the presence of the test substance.)

For assay [2], the target named is T2, hCB2 receptors (CHO cells transfected with hCB2) (Homo sapiens, UniProt P34972).
T2 construct: expressed in transfected cells; host or cells: CHO cells
T2 sequence (P34972 whole entry): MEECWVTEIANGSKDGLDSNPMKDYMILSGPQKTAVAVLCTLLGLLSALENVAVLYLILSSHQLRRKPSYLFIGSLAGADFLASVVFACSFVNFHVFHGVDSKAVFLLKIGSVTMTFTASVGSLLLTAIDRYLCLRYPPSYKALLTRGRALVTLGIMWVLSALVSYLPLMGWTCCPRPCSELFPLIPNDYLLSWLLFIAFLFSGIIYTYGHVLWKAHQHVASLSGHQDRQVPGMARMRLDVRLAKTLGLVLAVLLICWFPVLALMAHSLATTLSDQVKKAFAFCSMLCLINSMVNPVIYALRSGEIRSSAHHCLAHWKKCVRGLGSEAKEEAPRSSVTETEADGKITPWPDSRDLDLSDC
The assay can be described thus: Radioligand displacement assay, CHO-hCB2 cell membranes. The settings on record: Cheng & Prusoff, read-out: mean Ki, displacement of [3H]CP55940 from specific binding sites.

Assay [3] has as its target T3, cannabinoid CB1 receptors (mouse brain membranes) (Mus musculus, UniProt P47746).
T3 construct: membranes prepared from healthy brain tissue, which is densely populated with CB1 but not CB2 receptors; from tissue; host or cells: mouse brain membranes
Briefly: [35S]GTPγS binding assay, mouse brain membranes. The settings on record: for Kb: Mean apparent KB, brain membranes, THCV 1000 nM. Format: biochemical. Here is the method:
(§1) The assays were carried out with GTPγS binding buffer (50 mM Tris-HCl; 50 mM Tris-Base; 5 mM MgCl2; 1 mM EDTA; 100 mM NaCl; 1 mM DTT; 0.1% BSA) in the presence of [^35S]GTPγS and GDP, in a final volume of 500 μl. Binding was initiated by the addition of [^35S]GTPγS to the tubes. Nonspecific binding was measured in the presence of 30 μM GTPγS.
(§2) The drugs were incubated in the assay for 60 min at 30° C. The reaction was terminated by a rapid vacuum filtration method using Tris buffer (50 mM Tris-HCl; 50 mM Tris-Base; 0.1% BSA), and the radioactivity was quantified by liquid scintillation spectrometry.
The concentrations of [^35S]GTPγS and GDP present in the assay varied depending on whether the assay was conducted with mouse brain or transfected cell membranes.
Additionally, mouse brain membranes were preincubated for 30 minutes at 30° C. with 0.5 U ml^−1 adenosine deaminase to remove endogenous adenosine. Agonists and antagonists were stored as a stock solution of 1 or 10 mM in DMSO, the vehicle concentration in all assay tubes being 0.11% DMSO.
(§3) The apparent dissociation constant (KB) values for antagonism of agonists by THCV in the vas deferens or [^35S]GTPγS binding assay have been calculated by Schild analysis from the concentration ratio, defined as the concentration of an agonist that elicits a response of a particular size in the presence of a competitive reversible antagonist at a concentration, B, divided by the concentration of the same agonist that produces an identical response in the absence of the antagonist.
Mean values have been compared using Student's two-tailed t-test for unpaired data or one-way analysis of variance (ANOVA) followed by Dunnett's test (GraphPad Prism). A P-value <0.05 was considered to be significant.
A general note: GTPγS resists hydrolysis and so accumulates on activated G proteins.

The target of assay [4] is T4, transfected cannabinoid CB2 receptors (CHO-hCB2 cell membranes) (Homo sapiens, UniProt P34972).
T4 construct: expressed in transfected cells; host or cells: CHO cells
T4 sequence (P34972 whole entry): as above
The assay can be described thus: [35S]GTPγS binding assay, CHO-hCB2 cell membranes. In kind it is biochemical. The method, then: The conditions used for measuring agonist-stimulated [^35S]GTPγS binding to transfected cannabinoid CB2 receptors were adapted from those used by MacLennan et al. (1998) and Griffin et al. (1999).
as §1, §2
The concentrations of [^35S]GTPγS and GDP present in the assay varied depending on whether the assay was conducted with mouse brain or transfected cell membranes. […]
Net agonist-stimulated [^35S]GTPγS binding values were calculated by subtracting basal binding values (obtained in the absence of agonist) from agonist-stimulated values (obtained in the presence of agonist) as detailed elsewhere (Ross et al., 1999a). […]

Assay [5] deals with mouse isolated vas deferens. Briefly: Electrically-evoked contractions of the mouse isolated vas deferens. The method, then: Experiments were also carried out with the mouse isolated vas deferens, a tissue in which cannabinoid receptor agonists such as R-(+)-WIN55212, CP55940, THC and 2-arachidonoyl ethanolamide (anandamide) can inhibit electrically-evoked contractions (Devane et al., 1992; Pertwee et al., 1995).
Cannabinoid receptor agonists are thought to inhibit the electrically evoked contractions by acting on prejunctional neuronal cannabinoid CB1 receptors to inhibit release of the contractile neurotransmitters, ATP, (acting on postjunctional P2X purinoceptors), and noradrenaline, (acting on postjunctional α1-adrenoceptors), (Trendelenberg et al., 2000).
(§4) Vasa deferentia were obtained from albino MF1 mice weighing 31 to 59 g. The tissues were mounted vertically in 4 ml organ baths. They were then subjected to electrical stimulation of progressively greater intensity followed by an equilibration procedure in which they were exposed to alternate periods of stimulation (2 min) and rest (10 min) until contractions with consistent amplitudes were obtained (Thomas et al., 2004). These contractions were monophasic and isometric and were evoked by 0.5 s trains of pulses of 110% maximal voltage (train frequency 0.1 Hz; pulse frequency 5 Hz; pulse duration 0.5 ms).
Except in experiments with phenylephrine, all drug additions were made to the organ baths after the equilibration period and there was no washout between these additions. In most experiments there was an initial application of a potential antagonist or its vehicle. This was followed 28 min later by a 2 min period of electrical stimulation at the end of which the lowest of a series of concentrations of the twitch inhibitors, R-(+)-WIN55212, CP55940, THC, anandamide, (−)-7-hydroxy-cannabidiol-dimethylheptyl or clonidine, was applied.
After a period of rest, the tissues were electrically stimulated for 2 min and then subjected to a further addition of twitch inhibitor.
This cycle of drug addition, rest and 2 min stimulation was repeated so as to construct cumulative concentration-response curves. Only one concentration-response curve was constructed per tissue. Rest periods were 3 min for clonidine, 13 min for R-(+)-WIN55212, CP55940 and anandamide, 28 min for THC and THCV, and 58 min for (−)-7-hydroxy-cannabidiol-dimethylheptyl.
Experiments were also performed with capsaicin. This drug was added at intervals of 3 min and the tissues were not rested from electrical stimulation between these additions.
In some experiments, cumulative concentration-response curves for THCV were constructed without prior addition of any other compound, again using a cycle of drug addition, 28 min rest and 2 min stimulation.
(§5) Inhibition of the electrically-evoked twitch response of the vas deferens has been expressed in percentage terms and this has been calculated by comparing the amplitude of the twitch response after each addition of a twitch inhibitor with its amplitude immediately before the first addition of the inhibitor. Contractile responses to phenylephrine and β,γ-methylene-ATP have been expressed as increases in tension (g).
Values for EC50, for maximal effect (Emax) and for the s.e.mean or 95% confidence limits of these values have been calculated by nonlinear regression analysis using the equation for a sigmoid concentration-response curve (GraphPad Prism).
as §3
Mean values have been compared using Student's two-tailed t-test for unpaired data or one-way analysis of variance (ANOVA) followed by Dunnett's test (GraphPad Prism). […]

Assay [6] deals with mouse isolated vas deferens (P2 receptor agonist β,γ-methylene-ATP). Briefly: Contractile responses of the vas deferens to β,γ-methylene-ATP. The note with it: for contractions induced by β,γ-methylene-ATP: at 1 μM. Here is the method:
as §4
In experiments with β,γ-methylene-ATP, no electrical stimuli were applied after the equilibration procedure. Log concentration-response curves of β,γ-methylene-ATP were constructed cumulatively without washout. THCV, WIN or drug vehicle were added 30 min before the first addition of β,γ-methylene-ATP, each subsequent addition of which was made immediately after the effect of the previous dose had reached a plateau (dose cycles of 1 to 2 min).
as §5

Assay [7] relates to mouse isolated vas deferens (α1-adrenoceptor agonist phenylephrine hydrochloride). Briefly: Contractile responses of the vas deferens to phenylephrine. The note with it: for contractions induced by phenylephrine: at 1 μM. Here is the method: as §4
Only one addition of phenylephrine was made to each tissue and this was carried out 30 min after the addition of THCV, WIN or drug vehicle.
as §5

T3 sequence (P47746 whole entry): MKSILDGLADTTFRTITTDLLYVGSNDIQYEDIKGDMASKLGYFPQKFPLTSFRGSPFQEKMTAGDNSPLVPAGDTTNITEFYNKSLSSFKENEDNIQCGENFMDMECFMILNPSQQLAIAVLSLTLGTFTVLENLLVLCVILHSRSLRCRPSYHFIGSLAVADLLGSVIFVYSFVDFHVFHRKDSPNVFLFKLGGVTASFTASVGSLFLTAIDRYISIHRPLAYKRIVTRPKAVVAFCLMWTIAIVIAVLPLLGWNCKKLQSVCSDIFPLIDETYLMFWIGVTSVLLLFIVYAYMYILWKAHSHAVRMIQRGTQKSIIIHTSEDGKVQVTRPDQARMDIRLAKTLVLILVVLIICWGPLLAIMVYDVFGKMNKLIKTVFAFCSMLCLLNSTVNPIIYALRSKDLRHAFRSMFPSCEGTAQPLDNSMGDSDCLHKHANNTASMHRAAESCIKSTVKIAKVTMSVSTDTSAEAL
T1 sequence (P47746 whole entry): as above

By EC50 is commonly meant the midpoint of the concentration-response curve. The Ki is a dissociation constant, usually derived from enzyme kinetics or from competition with a known ligand. With `CCCc1cc(O)c2c(c1)OC(C)(C)[C@@H]1CCC(C)=C[C@@H]21` [THCV, tetrahydrocannabivarin], the concentration giving a half-maximal response (EC50) in assay [1] (EC50, displacement of [3H]CP55940, mouse brain membranes, n=4 to 8) is 98.2 nM; in assay [1] (mean EC50, displacement of [3H]R-(+)-WIN55212, mouse brain membranes, n=4 to 7), 61.3 nM; in assay [1] (mean EC50, displacement of [3H]SR141716A, mouse brain membranes, n=4 to 6), 86.8 nM; in assay [5] (Mus musculus, compound alone, read-out: EC50, inhibition of electrically-evoked contractions), 12700 nM. Also, the Ki came out at 75.4 nM in assay [1] (mouse brain membranes, Cheng & Prusoff, read-out: mean Ki, displacement of [3H]CP55940 from specific binding sites) and 62.8 nM in assay [2]. For the same compound, the Kb in assay [3] (agonist CP55940, SR141716A 10 nM) is 93.1 nM; in assay [3] (agonist R-(+)-WIN55212), 85.4 nM; in assay [4], 10.1 nM; in assay [5] (Mus musculus, twitch inhibitor 7-OH-CBD-DMH, THCV 100 nM, read-out: Mean apparent KB of THCV), more than 100 nM; in assay [5] (Mus musculus, twitch inhibitor CP55940, THCV 100 nM, read-out: Mean apparent KB of THCV), 10.3 nM; in assay [5] (Mus musculus, twitch inhibitor R-(+)-WIN55212, THCV 10-1000 nM, Tallarida method, read-out: Mean apparent KB of THCV) it was 1.5 nM. The Kb in assay [5] (Mus musculus, twitch inhibitor THC, THCV 1000 nM, read-out: Mean apparent KB of THCV) is 96.7 nM; in assay [5] (Mus musculus, twitch inhibitor anandamide, THCV 10 nM, read-out: mean apparent KB for antagonism of anandamide), 1.4 nM; in assay [5] (Mus musculus, twitch inhibitor anandamide, THCV 100 nM, read-out: Mean apparent KB of THCV) it was 1.2 nM; in assay [5] (Mus musculus, twitch inhibitor capsaicin, THCV 100 nM, read-out: Mean apparent KB of THCV) it was more than 100 nM; in assay [5] (Mus musculus, twitch inhibitor clonidine, THCV 100 nM, read-out: Mean apparent KB of THCV) it was more than 100 nM; in assay [5] (Mus musculus, twitch inhibitor methanandamide, THCV 100 nM, read-out: Mean apparent KB of THCV), 4.6 nM. Besides, the “effect by itself on [35S]GTPγS binding” value in assay [3] (mouse brain membranes, at antagonist concentrations) was “did not affect”; in assay [4] (CHO-hCB2 cell membranes, at antagonist concentrations) it was “did not affect”. Besides, in assay [5] (SR141716A 100 nM, n=7), the “inhibition of electrically-evoked contractions in presence of SR141716A” value is given as “not attenuated”. Besides, the “concentration above which electrically-evoked contractions were inhibited” value in assay [5] (SR141716A-independent manner) is “above 3 μM”. Further, the “antagonism of THC-induced twitch inhibition” value in assay [5] (THCV 100 nM, n=11) was “Nor did 100 nM THCV antagonize”. Besides, the “inhibition of electrically-evoked contractions” value is “no detectable inhibitory effect” in assay [5] (at 1 μM) and “marked inhibition” in assay [5] (at 31.6 μM). In addition, in assay [6], the “contractions induced by β,γ-methylene-ATP” value is recorded as “did not induce any significant reduction”. Further, the “contractile responses to β,γ-methylene-ATP” value in assay [6] (at 31.6 μM) was “attenuated”. For the same compound, the “contractions induced by phenylephrine” value in assay [7] is given as “did not induce any significant reduction”. In addition, in assay [7] (at 31.6 μM), the “contractile responses to phenylephrine hydrochloride” value is reported as “attenuated”.
Regarding `Cc1c(C(=O)c2cccc3ccccc23)c2cccc3c2n1[C@H](CN1CCOCC1)CO3` [R-(+)-WIN55212, reference compound], the “inhibition of electrically-evoked contractions” value in assay [5] (at 1 μM) is recorded as “markedly attenuated”. Further, the “contractions induced by β,γ-methylene-ATP” value in assay [6] was “did not decrease”. Further, the “contractions induced by phenylephrine” value in assay [7] was “did not decrease”.
